Results on 19 molecules are retold here after ChEMBL document CHEMBL4011615, “Past, Current, and Future Developments of Therapeutic Agents for Treatment of Chronic Hepatitis B Virus Infection” (J Med Chem, 2017).

The subject of data set [1] is Hepatitis B virus. As to the kind of experiment: Antiviral activity against HBV infected in human HepG2(2.2.15) cells assessed as inhibition of viral DNA level. Format: functional, cell-based.
For data set [2], the system named is Hepatitis B virus. As to the kind of experiment: Antiviral activity against HBV infected in human HepG2(2.2.15) cells assessed as inhibition of viral RNA level. The format is functional, cell-based.
Data set [3] can be described thus: Cytotoxicity against human HepG2(2.2.15) cells assessed as reduction in cell viability after 3 days by methylene blue assay. Format: cell-based.
In data set [4] the test system is Hepatitis B virus. Kind of data set: Antiviral activity against HBV infected in human HepaRG cells assessed as reduction in viral infection after 16 hrs.
For data set [5], the system named is Hepatitis B virus. As to the kind of experiment: Antiviral activity against HBV infected in human HepG2(2.2.15) cells assessed as inhibition of viral DNA level after 8 days by RT-PCR method. As to conditions: HepG2 2.2.15, 192 h. The format is functional, cell-based.
The test system of data set [6] is Hepatitis B virus. As to the kind of experiment: Antiviral activity against HBV infected in human HepG2(2.2.15) cells assessed as inhibition of viral DNA level after 24 hrs by RT-PCR method. The format is functional, cell-based. As to conditions: HepG2 2.2.15, 24 h.
A short description of data set [7]: Cytotoxicity against human HepG2(2.2.15) cells after 24 hrs by MTS assay. The format is cell-based. (Tetrazolium dyes change colour on reduction, which living cells bring about.)
The subject of data set [8] is Hepatitis B virus. As to the kind of experiment: Antiviral activity against HBV infected in human HepG2(2.2.15) cells assessed as reduction in intracellular viral capsid level at antiviral IC50 by immunoblot method. Format: functional.
For data set [9], the system named is Hepatitis B virus. As to the kind of experiment: Inhibition of HBV C150-Bodipy labeled capsid (1 to 150 residues) C49A/C61A/C107A mutant expressed in Escherichia coli assessed as reduction in NaCl-induced capsid assembly at 10 uM preincubated for 15 mins followed by NaCl addition measured after 1 hr by fluorescence quenching assay relative to control.
In data set [10] the test system is Hepatitis B virus. Kind of data set: Antiviral activity against HBV infected in human HuS-E/2 cells assessed as inhibition of viral mRNA level at 50 uM treated for 20 hrs measured after 7 days by RT-PCR method relative to control. The format is functional.
In data set [11] the test system is Hepatitis B virus. Kind of data set: Antiviral activity against HBV infected in human HepG2(2.2.15) cells assessed as inhibition of extracellular viral DNA level. Format: functional, cell-based.
The test system of data set [12] is Hepatitis B virus. As to the kind of experiment: Antiviral activity against HBV infected in human HepG2(2.2.15) cells assessed as inhibition of viral DNA level after 6 days by Southern blot analysis. The format is functional, cell-based. To be noted: HepG2 2.2.15, 144 h.
In data set [13] the test system is Hepatitis B virus. Kind of data set: Antiviral activity against HBV infected in human HepAD38 cells. The format is functional, cell-based.
Data set [14] relates to Hepatitis B virus. Kind of data set: Antiviral activity against HBV infected in human HepG2.N9 cells assessed as reduction in HBeAg level measured on day 8 post infection. To be noted: 192 h. The format is functional, cell-based.

Broadly, the IC50 is the point on the concentration scale where inhibition reaches its midpoint. For `CCOC(=O)C1=C(CN2CCOCC2)NC(c2nccs2)=NC1c1ccc(F)cc1Br` (configuration not stated), the IC50 with Hepatitis B virus [1] is 12 nM. In the case of `CC(C)Cc1nc(-c2nccs2)sc1C(=O)NCc1ccc(F)cc1`, the IC50 in the data set with Hepatitis B virus [2] stood at 1330 nM. For `CC(=O)[C@]1(O)CC[C@@]2(O)[C@]1(C)[C@H](OC(=O)/C=C(\C)C(C)C)C[C@@H]1[C@@]3(C)CC[C@H](O)CC3=CC[C@]12O` [CAUDATIN], the IC50 with Hepatitis B virus [1] stood at 40600 nM.

In general, CC50 refers to the concentration that lowers cell viability or growth by half. Turning to `O=c1[nH][nH]c(=O)c2c(-c3ccc4c(c3)OCO4)c3c4c(ccc3cc12)OCO4`, the CC50 at 72 h in data set [3] turned out to be 9000 nM.

As for `C/C=C/C[C@@H](C)[C@@H](O)[C@H]1C(=O)N[C@@H](CC)C(=O)N(C)CC(=O)N(C)[C@@H](CC(C)C)C(=O)N[C@@H](C(C)C)C(=O)N(C)[C@@H](CC(C)C)C(=O)N[C@@H](C)C(=O)N[C@H](C)C(=O)N(C)[C@@H](CC(C)C)C(=O)N(C)[C@@H](CC(C)C)C(=O)N(C)[C@@H](C(C)C)C(=O)N1C` [CYCLOSPORINE], the IC50 with Hepatitis B virus [4] was less than 200 nM. On to `CCOC(=O)C1=C(C)NC(c2ncccc2F)=N[C@@H]1c1ccc(F)cc1Cl`, for which, in the data set on Hepatitis B virus [1], the IC50 came out at 150 nM.

`CCOC(=O)C1=C(C)NC(c2c(F)cc(F)cc2F)=N[C@H]1c1ccc(F)cc1Cl`: the IC50 in the data set with Hepatitis B virus [1] came out at 280 nM. For the molecule `CCOC(=O)c1sc(-c2nc(C)cs2)nc1CC(C)C`, the IC50 in the data set on Hepatitis B virus [5] is 140 nM. With `O=C(CNC(=O)c1ccc(F)cc1)Nc1ccc(Cl)nc1Cl`, the IC50 in the data set on Hepatitis B virus [6] was determined as 880 nM. For the same molecule, the CC50 at 24 h in data set [7] was 144000 nM. Besides, the “inhibition (INH)” value with Hepatitis B virus [8] was determined as 51%. In the case of `CC(=O)Nc1ccc(-c2cc(C)c(=O)n(Cc3ccc(Cl)cc3)n2)cc1`, the IC50 in the data set with Hepatitis B virus [5] came out at 1500 nM.

One may read the inhibition as the drop in the measured response relative to a control, in per cent. For `O=C(Nc1ccc(F)c(Cl)c1)N1CCCN(c2c(Cl)cncc2Cl)CC1`, the inhibition in the data set with Hepatitis B virus [9] was greater than 50%.

For the molecule `O=C(O[C@@H]1Cc2c(O)cc(O)cc2O[C@@H]1c1cc(O)c(O)c(O)c1)c1cc(O)c(O)c(O)c1` [EPIGALOCATECHIN GALLATE], the inhibition at 50 µM in the data set on Hepatitis B virus [10] is greater than 80%. Take `O=C(Nc1ncc([N+](=O)[O-])s1)c1ccccc1O` [TIZOXANIDE]: in the data set with Hepatitis B virus [11], the IC50 is 150 nM. `O=c1cc(-c2ccc(O)c(-c3c(O)cc4oc(-c5ccc(O)cc5)cc(=O)c4c3O)c2)oc2cc(O)cc(O)c12` [ROBUSTAFLAVONE]: the IC50 in the data set on Hepatitis B virus [1] amounted to 250 nM. In the case of `O=C1OCc2c1cc1ccc3c(c1c2-c1ccc2c(c1)OCO2)OCO3` [HELIOXANTHIN], the CC50 at 72 h in data set [3] amounted to 6000 nM. Further, the half-inhibitory concentration (IC50) in the data set with Hepatitis B virus [12] turned out to be 1000 nM. With `COC(=O)C1=C(CN2CCOCC2)NC(c2nccs2)=N[C@H]1c1ccc(F)cc1Br`, the IC50 in the data set on Hepatitis B virus [1] was 11 nM. Consider `CC(=O)Oc1ccccc1C(=O)Nc1ncc([N+](=O)[O-])s1` [NITAZOXANIDE], for which the IC50 with Hepatitis B virus [11] came out at 120 nM. `COc1ccccc1/C(Br)=C(/NC(=O)c1ccc([N+](=O)[O-])cc1)C(=O)N1CCCCC1` came in with an IC50 in the data set on Hepatitis B virus [13] of 130 nM. Take `CCCCC1=NC2(CCCC2)C(=O)N1Cc1ccc(-c2ccccc2-c2nnn[nH]2)cc1` [IRBESARTAN]: the IC50 in the data set with Hepatitis B virus [14] was 3300 nM.
